The values below come from patent US20240360146A1, “BRUTON'S TYROSINE KINASE AND MUTANT DEGRADER, COMPOSITION AND APPLICATION THEREOF” (HANGZHOU HEALZEN THERAPEUTICS CO., LTD., priority 2021, published 2024).

A value given as a limit tells only on which side of the number the result lay.

One data set addresses T1, BTK (Homo sapiens, UniProt Q06187).
T1 construct: endogenous in cells; host or cells: Mino cells
The data set can be described thus: BTK degradation activity test in Mino cells. In kind it is cell-based. The following applies: 16 h incubation, Western blot or Elisa. In short, it runs like this: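 Mino cells treated with a concentration series of compound for 16 h, then lysed; total protein by BCA. BTK quantified by Western blot or ELISA, degradation rate calculated against blank control, and DC50 fitted from the degradation curve.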

The test system of the next data set is Mino cells. Description: Inhibitory activity on Mino cell proliferation (MTS). In kind it is cell-based. The conditions noted are these: Homo sapiens, 168 h incubation. In short, it runs like this: (§1)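 Cells seeded at 10000/well, treated with compounds from 1000 nM (4-fold, 8 points) for 72 h (OCI-LY10) or 168 h (Mino) at 37° C. MTS added for 2 h, stopped with SDS, absorbance read at 490 and 650 nm; IC50 from dose-response fit.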

A further data set relates to OCI-LY10 cells. The data set can be described thus: Inhibitory activity on OCI-LY10 cell proliferation (MTS). The conditions noted are these: Homo sapiens, 72 h. In kind it is cell-based. In short, it runs like this: as §1
Data set [1] is described as follows: Stability of compounds in human liver microsome. In kind it is in vitro ADME. The following applies: human liver microsomes, NADPH, 37° C., sampling 0-120 min; read-out: Human liver microsome T1/2. How it is done:
Compound to be tested: the compound to be tested (1 mg) was dissolved in DMSO (10 mL) to formulate to 0.1 mg/mL.
Internal standard compound: the internal standard compound (1 mg) was dissolved in DMSO (10 mL), 10 μL was taken and diluted to 10 mL to formulate to 100 ng/mL.
NADPH solution: NADPH (2.08 mg) was dissolved in PBS (50 μL) buffer to formulate to 50 mM.
Under the condition of ice bath, 1 mg of human liver microparticles was add to PBS (1 mL) buffer, then NADPH (20 μL) was added, and incubated at 37° C. for 5 min. 10 μL of the compound to be tested was added, and then samples were taken at 0, 15, 30, 60 and 120 min respectively. 10 μL of the solution was taken with a pipette each time and added to 490 μL of the solution containing the internal standard compound. The resulting solution was vortexed and then placed on ice, and then sampling at another time point continues. All samples were centrifuged at 10,000 rpm for 10 min, and the supernatant was taken for LC/MS testing. The metabolism of the compound in liver microsomes was calculated based on the peak area.
Background: Liver microsomes are vesicles of endoplasmic reticulum, rich in cytochrome P450 enzymes.

Data set [2] can be described thus: Mouse absorption test (pharmacokinetic properties in mice). In kind it is in vivo. The following applies: intragastric; for DNAUC: DNAUC = AUC/Dose; for Cmax: mouse, plasma, po. As for the experimental part: […] The blood collection time points for intragastric administration were 0.25, 0.5, 1, 2, 4, 6, 8, and 24 h. 0.5 mL of blood was taken with a capillary tube from the orbit, and placed in an EP tube containing EDTA anticoagulant. The EP tube was shaken gently for mixing uniformly, and centrifuged at 3500 rpm and 4° C. for 10 min. The supernatant, i.e., plasma, was taken. Analysis was performed using LC-MS/MS.

T1 sequence (Q06187 whole entry): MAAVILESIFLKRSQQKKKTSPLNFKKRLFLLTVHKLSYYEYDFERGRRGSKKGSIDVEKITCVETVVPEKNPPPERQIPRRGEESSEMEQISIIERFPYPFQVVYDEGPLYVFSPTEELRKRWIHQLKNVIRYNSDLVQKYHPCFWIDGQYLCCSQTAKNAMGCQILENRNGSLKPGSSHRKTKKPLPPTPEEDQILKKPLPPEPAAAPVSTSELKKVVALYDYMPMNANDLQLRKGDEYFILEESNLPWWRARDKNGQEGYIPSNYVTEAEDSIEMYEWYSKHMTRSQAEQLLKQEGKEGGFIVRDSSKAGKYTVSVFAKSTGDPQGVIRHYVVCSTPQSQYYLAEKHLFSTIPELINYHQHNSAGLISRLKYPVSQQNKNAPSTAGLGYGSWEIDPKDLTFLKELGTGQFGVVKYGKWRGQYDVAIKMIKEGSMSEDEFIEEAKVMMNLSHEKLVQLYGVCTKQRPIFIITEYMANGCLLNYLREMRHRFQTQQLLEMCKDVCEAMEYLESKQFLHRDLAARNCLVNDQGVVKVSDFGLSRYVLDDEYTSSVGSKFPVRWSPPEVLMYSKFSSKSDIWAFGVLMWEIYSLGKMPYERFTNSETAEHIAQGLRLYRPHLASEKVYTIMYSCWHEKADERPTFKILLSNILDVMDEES

In general, DC50 refers to the concentration giving 50% degradation. What is called IC50 is the midpoint of a concentration-inhibition curve. A lower IC50 goes with greater potency. At BTK, `NC(=O)c1nnc(N2CC3CC(N4C(=O)c5ccccc5C4=O)C2C3)nc1Nc1ccc(C2CCN(CC3CCN(c4ccc5c(c4)C(=O)N(C4CCC(=O)NC4=O)C5=O)CC3)CC2)cc1` (stereo not drawn) [Compound 143, 3-(6-(1,3-dioxoisoindolin-2-yl)-2-azabicyclo[2.2.1]heptan-2-yl)-5-((4-(1-((1-(2-(2,6-dioxopiperidin-3-yl)-1,3-dioxoisoindolin-5-yl)piperidin-4-yl)methyl)piperidin-4-yl)phenyl)amino)-1,2,4-triazin-6-carboxamide] had a DC50 below 1 nM. Also, the figures for the IC50 in the data set with Mino cells and in the data set on OCI-LY10 cells were 3.08 nM and 0.33 nM, respectively. In addition, the half-life at 0.97 µg/mL in data set [1] worked out at 39.1 min.

Turning to `NC(=O)c1nnc(N2CC3CC(N4C(=O)c5ccccc5C4=O)C2C3)nc1Nc1ccc(C2CCN(CC3CCN(c4ccc5c(c4)C(=O)N(C4CCC(=O)NC4=O)C5=O)C3)CC2)cc1` (stereo not drawn) [Compound 144, 3-(6-(1,3-dioxoisoindolin-2-yl)-2-azabicyclo[2.2.1]heptan-2-yl)-5-((4-(1-((1-(2-(2,6-dioxopiperidin-3-yl)-1,3-dioxoisoindolin-5-yl)pyrrolidin-3-yl)methyl)piperidin-4-yl)phenyl)amino)-1,2,4-triazin-6-carboxamide], the DC50 on BTK is below 1 nM. Also, the IC50 in the data set on Mino cells and in the data set with OCI-LY10 cells was 3.49 nM in each case. In addition, the half-life at 0.97 µg/mL in data set [1] came to 146 min.

For the molecule `CN1CCN([C@@H]2CCCN(c3nnc(C(N)=O)c(Nc4ccc(N5CCN(CC6CCN(c7ccc(N8CCC(=O)NC8=O)cc7)C6)CC5)c(F)c4)n3)C2)C1=O` (stereo partly drawn) [Compound 147, 5-((4-(4-((1-(4-(2,4-dioxotetrahydropyrimidin-1(2H)-yl)phenyl)pyrrolidin-3-yl)methyl)piperazin-1-yl)-3-fluorophenyl)amino)-3-((R)-3-(3-methyl-2-oxoimidazolin-1-yl)piperidin-1-yl)-1,2,4-triazin-6-carboxamide], the DC50 on BTK is below 1 nM. The results for the half-maximal inhibitory concentration (IC50) in the data set on Mino cells and in the data set on OCI-LY10 cells were 0.54 nM and 1.48 nM, respectively. For the same molecule, the half-life at 0.97 µg/mL in data set [1] was above 30 min.

Regarding `CN1CCN([C@@H]2CCCN(c3nnc(C(N)=O)c(Nc4ccc(N5CCN(CC6CCN(C(=O)c7ccc(F)c(N8CCC(=O)NC8=O)c7)C6)CC5)c(F)c4)n3)C2)C1=O` (stereo partly drawn) [Compound 148, 5-((4-(4-((1-(3-(2,4-dioxotetrahydropyrimidin-1(2H)-yl)-4-fluorobenzoyl)pyrrolidin-3-yl)methyl)piperazin-1-yl)-3-fluorophenyl)amino)-3-((R)-3-(3-methyl-2-oxoimidazolin-1-yl)piperidin-1-yl)-1,2,4-triazin-6-carboxamide], the DC50 on BTK was below 1 nM. For the same molecule, the results for the concentration for half-maximal inhibition (IC50) with Mino cells and with OCI-LY10 cells were 7.79 nM and 3.21 nM, respectively. For the same molecule, the half-life at 0.97 µg/mL in data set [1] is above 30 min.

In turn, `COc1ccc(C(=O)N2CCC(CN3CCN(c4ccc(Nc5nc(N6CCC[C@@H](N7CCN(C)C7=O)C6)nnc5C(N)=O)cc4F)CC3)C2)cc1N1CCC(=O)NC1=O` (stereo partly drawn) [Compound 149, 5-((4-(4-((1-(3-(2,4-dioxotetrahydropyrimidin-1(2H)-yl)-4-methoxybenzoyl)pyrrolidin-3-yl)methyl)piperazin-1-yl)-3-fluorophenyl)amino)-3-((R)-3-(3-methyl-2-oxoimidazolin-1-yl)piperidin-1-yl)-1,2,4-triazin-6-carboxamide] registered a DC50 on BTK below 1 nM. The IC50 in the data set on Mino cells stood at 8.89 nM; with OCI-LY10 cells, 2.6 nM. Moreover, the half-life at 0.97 µg/mL in data set [1] is above 30 min.

For the molecule `CN1CCN([C@@H]2CCCN(c3nnc(C(N)=O)c(Nc4ccc(N5CCN(CC6CCN(c7ccc(C(=O)N[C@H]8CCC(=O)NC8=O)nc7)CC6)CC5)c(F)c4)n3)C2)C1=O` [Compound 171, 5-((4-(4-((1-(6-(((S)-2,6-dioxopiperidin-3-yl)carbamoyl)pyridin-3-yl)piperidin-4-yl)methyl)piperazin-1-yl)-3-fluorophenyl)amino)-3-((R)-3-(3-methyl-2-oxoimidazolidin-1-yl)piperidin-1-yl)-1,2,4-triazin-6-carboxamide], the DC50 on BTK is below 1 nM. Besides, the IC50 came out at 3.43 nM in the data set with Mino cells and 2.65 nM with OCI-LY10 cells. The half-life at 0.97 µg/mL in data set [1] is above 30 min.

Turning to `CN1CCN([C@@H]2CCCN(c3nnc(C(N)=O)c(Nc4ccc(N5CCN(CC6CCN(c7ccc(C(=O)N[C@H]8CCC(=O)NC8=O)c(F)c7)CC6)CC5)c(F)c4)n3)C2)C1=O` [Compound 172, 5-((4-(4-((1-(4-(((S)-2,6-dioxopiperidin-3-yl)carbamoyl)-3-fluorophenyl)piperidin-4-yl)methyl)piperazin-1-yl)-3-fluorophenyl)amino)-3-((R)-3-(3-methyl-2-oxoimidazolidin-1-yl)piperidin-1-yl)-1,2,4-triazin-6-carboxamide], the DC50 at BTK was below 1 nM. Besides, the 50% inhibitory concentration (IC50) in the data set with Mino cells was 6.2 nM; in the data set on OCI-LY10 cells it was 2.39 nM. The half-life at 0.97 µg/mL in data set [1] was above 30 min.

In turn, `CN1CCN([C@@H]2CCCN(c3nnc(C(N)=O)c(Nc4ccc(N5CCN(CC6CCN(c7ccc(N8CCC(=O)NC8=O)nc7)CC6)CC5)c(F)c4)n3)C2)C1=O` [Compound 195, (R)-5-((4-(4-((1-(6-(2,4-dioxotetrahydropyrimidin-1(2H)-yl)pyridin-3-yl)piperidin-4-yl)methyl)piperazin-1-yl)-3-fluorophenyl)amino)-3-(3-(3-methyl-2-oxoimidazolidin-1-yl)piperidin-1-yl)-1,2,4-triazin-6-carboxamide] showed a half-maximal degradation concentration (DC50) on BTK below 1 nM. Also, the IC50 in the data set with Mino cells is 8.53 nM; in the data set with OCI-LY10 cells, 1.79 nM. The half-life at 0.97 µg/mL in data set [1] was above 30 min.

As usually defined, the Cmax is the peak of the concentration-time curve. As for `CN1CCN([C@@H]2CCCN(c3nnc(C(N)=O)c(Nc4ccc(N5CCN(CC6CCN(c7ccc(C(=O)NC8CCC(=O)NC8=O)c(F)c7)CC6)CC5)c(F)c4)n3)C2)C1=O` (stereo partly drawn) [Compound 254, 5-((4-(4-((1-(4-((2,6-dioxopiperidin-3-yl)carbamoyl)-3-fluorophenyl)piperidin-4-yl)methyl)piperazin-1-yl)-3-fluorophenyl)amino)-3-((R)-3-(3-methyl-2-oxoimidazolidin-1-yl)piperidin-1-yl)-1,2,4-triazin-6-carboxamide], the DNAUC in data set [2] (30 mg/kg) came out at 2536 ng/ml*h/mpk. Further, in data set [2] (30 mg/kg, class symbols), the Cmax was above 6000 ng/mL. On BTK, this molecule yielded a DC50 below 1 nM. This molecule also gave an IC50 in the data set on OCI-LY10 cells of 0.89 nM. Further, the half-life at 0.97 µg/mL in data set [1] is above 30 min.

In the case of `CN1CCN([C@@H]2CCCN(c3nnc(C(N)=O)c(Nc4ccc(N5CCN(CC6CCN(c7ccc(F)c(N8CCC(=O)NC8=O)c7)C6)CC5)c(F)c4)n3)C2)C1=O` (stereo partly drawn) [Compound 256, 5-((4-(4-((1-(3-(2,4-dioxotetrahydropyrimidin-1(2H)-yl)-4-fluorophenyl)pyrrolidin-3-yl)methyl)piperazin-1-yl)-3-fluorophenyl)amino)-3-((R)-3-(3-methyl-2-oxoimidazolidin-1-yl)piperidin-1-yl)-1,2,4-triazin-6-carboxamide], the DC50 at BTK is below 1 nM. Besides, the IC50 with Mino cells amounted to 1.87 nM; with OCI-LY10 cells, 1.6 nM. Besides, the half-life at 0.97 µg/mL in data set [1] is above 30 min.

In turn, `COc1ccc(N2CCC(CN3CCN(c4ccc(Nc5nc(N6CCC[C@@H](N7CCN(C)C7=O)C6)nnc5C(N)=O)cc4F)CC3)C2)cc1N1CCC(=O)NC1=O` (stereo partly drawn) [Compound 258, 5-((4-(4-((1-(3-(2,4-dioxotetrahydropyrimidin-1(2H)-yl)-4-methoxyphenyl)pyrrolidin-3-yl)methyl)piperazin-1-yl)-3-fluorophenyl)amino)-3-((R)-3-(3-methyl-2-oxoimidazolidin-1-yl)piperidin-1-yl)-1,2,4-triazin-6-carboxamide] gave a DC50 on BTK below 1 nM. In addition, the values for the IC50 in the data set on Mino cells and in the data set on OCI-LY10 cells were 5.31 nM and 0.96 nM, respectively. Besides, the half-life at 0.97 µg/mL in data set [1] was above 30 min.

For the molecule `CN1CCN([C@@H]2CCCN(c3cnc(C(N)=O)c(Nc4ccc(C5CCN(CC6CCN(c7ccc8c(c7)C(=O)N(C7CCC(=O)NC7=O)C8=O)CC6)CC5)cc4)n3)C2)C1=O` (stereo partly drawn) [Compound b], in data set [2] (100 mg/kg), the DNAUC was 631 ng/ml*h/mpk and the Cmax was found to be 4030 ng/mL. The half-life at 0.97 µg/mL in data set [1] amounted to 5.18 min.
